Tested on: RLE-6TN cells
Experiment: RLE-6TN cell survival under hyperoxia, viable cells by trypan blue exclusion
Format: cell-based, rat
Description: FIG. 7. […] The cells were cultured in DMEM/F12 with 10% FBS in 21% O2 and 5% CO2 overnight. […] The viable cells are counted immediately after 72-hour hyperoxia exposure. Cell viability is assessed with trypan blue. Viable cells under specific conditions are presented as a percentage of the cell number from hyperoxia alone. Data are mean±s.d. of four independent experiments with *=P<0.05; **=P<0.01.
FIG. 8. […] In both (A) and (B), the number of viable cells under specific conditions is presented as a percentage of the cell number related to hyperoxia alone in the same experiment. Data are mean±s.d. of four independent experiments with *=P<0.05; **=P<0.01.
FIG. 10. HO-1 Upregulation is required for T3-increased RLE-6TN cell survival in hyperoxia. […] The cells were then collected for Western Blot analysis. (B) The cells were incubated in 21% O2 and 5% CO2 for 72 hours in the present of HO-1 inhibitor Tin Protoporphyrin IX(10^−6 M) tinT3 (10^−6 M). […] Cell viability is assessed with trypan blue. The number of viable cells under specific conditions is presented as a percentage of the cell number related to hyperoxia alone. Data are mean±s.d. of three independent experiments with *=P<0.05; **=P<0.01.
FIG. 11. PI3K inhibitor wortmannin blocked T3-induced cell survival in hyperoxia. […] Cell viability is assessed with trypan blue. The number of viable cells under specific conditions is presented as a percentage of the cell number related to hyperoxia alone. Data are mean±s.d. of four independent experiments with *=P<0.05; **=P<0.01.
At the end of the hyperoxia exposure period, the viable cells were counted by trypan blue dye exclusion.

`C=Cc1c2[n-]c(c1C)/C=c1\[n-]/c(c(C)c1C=C)=C\c1[n-]c(c(CCC(=O)O)c1C)C=c1[n-]/c(c(C)c1CCC(=O)O)=C\2.[Sn+4]` [Tin protoporphyrin, Tin Protoporphyrin IX] was tested, and the “Effect on AT2 cell number in room air” value (21% O2 72 hours, 10^−6 M) was “had no effect on AT2 cell number in room air” and the “Effect on T3-caused increase in cell survival in hyperoxia” value (90% O2 72 hours, T3 10^−6 M, Tin Protoporphyrin 10^−6 M) was “blocked the T3-caused increase in cell survival and augmented cell death”.
In the case of `N[C@@H](Cc1ccc(Oc2cc(I)c(O)c(I)c2)c(I)c1)C(=O)O` [rT3], the “Effect on cell survival under hyperoxia” value (90% oxygen 72 hours, 10^−6 M) is reported as “had no role in cell survival”.
